# Data taken from patent US12565510B2, “Phospholipid” (NIPPON FINE CHEMICAL CO., LTD., priority 2021, dated 2026).
# Assays:
# [1] = Measurement of particle size and polydispersity index of lipid particles (Zetasizer Nano ZS); type: physicochemical; details: siRNA-containing lipid particles made with the named phospholipid A, phospholipid B and cholesterol; for PDI / Particle size (nm): diluted 50-fold with RNase-free water
# Procedure: (§1) siRNA was added to 1 mM citrate buffer (pH 4.0), thereby preparing an acidic aqueous solution of siRNA (25° C., siRNA concentration: 301.2 nM). Separately, lipids were added to ethanol, thereby preparing a phospholipid alcohol solution (25° C., lipid concentration: 2.5 mM). The molar ratios of lipids were (1) DHSM-DEDA:DHSM:cholesterol (Chol)=45:10:45, (2) DHSM-PPZ:DOPC:cholesterol (Chol)=45:10:60, and (3) DOP-DEDA:DPPC:cholesterol (Chol)=45:10:45. A 4.15-fold volume of the acidic aqueous solution of siRNA was added to the phospholipid alcohol solution (siRNA/lipid molar ratio=1/7000), and a microchannel (KeyChem-Basic, YMC Co., Ltd.) was used to obtain lipid particles. Finally, ethanol was removed by dialysis.
# The lipid particles were diluted 50-fold with RNase-free water, and then the particle size and polydispersity index (PDI) were measured with a Zetasizer Nano ZS (Malvern). The lipid particles were also diluted 50-fold with a buffer (pH=4.0, 5.0, 6.0, or 7.0), and the ζ-potential was then measured.
# [2] = siRNA encapsulation efficiency of lipid particles (RiboGreen reagent); type: physicochemical; details: siRNA-containing lipid particles made with the named phospholipid A; siRNA/lipid molar ratio 1/7000; with or without 2% Triton-X 100
# Procedure: as §1
# Further, the encapsulation efficiency of siRNA was measured in the following manner. The measurement was performed using an RNA assay reagent (RiboGreen reagent, Thermo Fisher Scientific), specifically as described below. […] The plate was shaken for 5 minutes, and the fluorescence intensity in each well was measured. The encapsulation efficiency of siRNA in the lipid particles was calculated using the following equation: the encapsulation efficiency (%)=(the fluorescence intensity of total siRNA−the fluorescence intensity of free siRNA)/(the fluorescence intensity of total siRNA), with the measured fluorescence intensity.
Compound,Particle size distribution [1],PDI [1],Particle size (nm) [1] [nm],siRNA encapsulation efficiency (%) [2] [%]
"CCCCCCCCCCCCCCCCCC(=O)N[C@@H](COP(=O)(O)OCCNCCN)[C@H](O)CCCCCCCCCCCCCCC [DHSM-DEDA, (2S,3R)-3-hydroxy-2-stearamidooctadecyl (2-(2′-aminoethylenamine)ethyl) phosphate]",Double peak,0.09 ± 0.03,132 ± 37,
"(2S,3R)-3-hydroxy-2-stearamidooctadecyl (2-(piperazino)ethyl) phosphate [DHSM-PPZ]",Double peak,0.16 ± 0.01,111 ± 4,80 ± 7
"Dioleoylphosphate-Diethylenediamine Conjugate [DOP-DEDA, reference compound]",Single peak,0.11 ± 0.06,100 ± 3,98 ± 7
